Earlier results as cited in patent US8802735B2, “(Z)-2-cyano-3-hydroxy-but-2-enoic acid-(4'-trifluormethylphenyl)-amide tablet formulations with improved stability” (Sanofi, priority 2009, dated 2014).

Biological target: dihydroorotate dehydrogenase (Homo sapiens, UniProt Q02127)
Conditions: Bruneau J-M, et al., Biochem. J. 1998

Chain of dihydroorotate dehydrogenase (Q02127 whole entry): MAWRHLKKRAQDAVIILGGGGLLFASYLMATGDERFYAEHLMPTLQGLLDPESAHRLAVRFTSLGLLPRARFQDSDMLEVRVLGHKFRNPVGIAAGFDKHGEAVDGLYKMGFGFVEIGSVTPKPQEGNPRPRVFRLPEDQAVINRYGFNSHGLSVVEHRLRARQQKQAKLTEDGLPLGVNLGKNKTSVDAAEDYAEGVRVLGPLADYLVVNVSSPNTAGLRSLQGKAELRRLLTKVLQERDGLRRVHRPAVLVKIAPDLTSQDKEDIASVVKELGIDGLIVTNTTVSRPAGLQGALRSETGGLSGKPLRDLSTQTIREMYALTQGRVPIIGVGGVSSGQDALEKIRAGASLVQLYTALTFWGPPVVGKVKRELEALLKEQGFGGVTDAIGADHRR

inhibition of the enzyme dihydroorotate dehydrogenase: inhibits
Compound: C/C(O)=C(\C#N)C(=O)Nc1ccc(C(F)(F)F)cc1 [Teriflunomide, (Z)-2-cyano-3-hydroxy-but-2-enoic acid-(4′-trifluoromethylphenyl)-amide]
